Results on three molecules are retold here after DBAASP.

SMILES strings stand for the structures. ≈ marks a conversion by molar mass, not a printed value. Where only a bound is given, the exact number is not on record here.

Holding throughout (assay): ≥ marks a high value that may be exact or a test limit, other limits are often not marked, values filed in µg/mL are converted to µM
Assay [1] concerns Pseudomonas aeruginosa PAO1.
For assay [2], the system named is Pseudomonas aeruginosa PA7.
In a further assay the test system is Escherichia coli MG1655.
Assay [3] relates to Staphylococcus aureus NCTC 8325.
For assay [4], the system named is Staphylococcus aureus ATCC 29213.
The subject of assay [5] is Salmonella enterica subsp. enterica serovar Typhimurium ATCC 14028.
For assay [6], the system named is Lactiplantibacillus plantarum 8014.
Assay [7] relates to Staphylococcus epidermidis ATCC 12228.
The subject of assay [8] is Salmonella enterica subsp. enterica serovar Typhimurium C77-31.
Assay [9] deals with Staphylococcus aureus ATCC 25923.
The test system of assay [10] is Candida tropicalis CGMCC 2.1975.
The subject of assay [11] is Candida albicans CGMCC 2.2086.
The subject of assay [12] is Lacticaseibacillus rhamnosus 7469.
For assay [13], the system named is Candida parapsilosis CGMCC 2.3989.

Take `CC[C@H](C)[C@H](N)C(=O)N[C@@H](CCCCN)C(=O)N[C@H](C(=O)N1CCC[C@H]1C(=O)N1CCC[C@H]1C(=O)N[C@H](C(=O)N[C@H](C(=O)N[C@@H](CCCCN)C(=O)N[C@@H](CC(=O)O)C(=O)N[C@H](C(=O)N[C@@H](CC(C)C)C(=O)N[C@@H](CCCCN)C(=O)N[C@@H](CCCCN)C(=O)N[C@H](C(=O)N[C@@H](C)C(=O)N[C@@H](CCCCN)C(=O)NCC(=O)N[C@H](C(=O)N[C@@H](CC(C)C)C(=O)N[C@@H](CO)C(=O)N[C@H](C(=O)N[C@H](C(=O)N[C@@H](C)C(=O)N[C@@H](CC(=O)O)C(=O)N[C@@H](C)C(=O)N[C@@H](CC(C)C)C(=O)N[C@@H](CO)C(=O)N[C@@H](CCCCN)C(=O)N[C@@H](CO)C(=O)O)C(C)C)[C@@H](C)O)C(C)C)C(C)C)[C@@H](C)O)C(C)C)[C@@H](C)CC)[C@@H](C)CC` [IKIPPIVKDTLKKVAKGVLSTVADALSKS]: the MIC was 5.66 µM (≈ 17.1 µg/mL) in assay [1], 8 µM (≈ 24.2 µg/mL) in assay [2], 1 µM (≈ 3.02 µg/mL) against Escherichia coli MG1655 and not below 362 µM in [3].

With `CC[C@H](C)[C@H](NC(=O)[C@H](CCC(=O)O)NC(=O)[C@H](CCCCN)NC(=O)[C@H](C)NC(=O)[C@@H](NC(=O)[C@H](CCCCN)NC(=O)[C@H](CCCCN)NC(=O)[C@H](CC(C)C)NC(=O)[C@@H](NC(=O)[C@H](CC(=O)O)NC(=O)[C@H](CCCN=C(N)N)NC(=O)[C@@H](NC(=O)[C@H](Cc1ccccc1)NC(=O)CNC(=O)[C@@H]1CCCN1C(=O)[C@@H](NC(=O)[C@H](CCCCN)NC(=O)[C@@H](N)CC(C)C)[C@@H](C)CC)C(C)C)[C@@H](C)O)C(C)C)C(=O)N[C@@H](Cc1ccccc1)C(=O)N[C@@H](CO)C(=O)N[C@@H](C)C(=O)N[C@H](C(=O)N[C@H](C(=O)NCC(=O)N[C@@H](C)C(=O)N[C@H](C(=O)N[C@H](C(=O)N[C@@H](CCC(N)=O)C(=O)N[C@@H](CO)C(=O)O)[C@@H](C)O)C(C)C)[C@@H](C)O)C(C)C` [LKIPGFVRDTLKKVAKEIFSAVTGAVTQS], the MIC was 4 µM (≈ 12.4 µg/mL) in [1], 4 µM (≈ 12.4 µg/mL) in [2], 1 µM (≈ 3.1 µg/mL) in the assay with Escherichia coli MG1655 and not below 128 µM in assay [3].

Regarding `CC[C@H](C)[C@H](N)C(=O)N[C@@H](Cc1cnc[nH]1)C(=O)N[C@@H](Cc1cnc[nH]1)C(=O)N[C@H](C(=O)N[C@@H](Cc1cnc[nH]1)C(=O)N[C@@H](Cc1cnc[nH]1)C(=O)N[C@H](C(=O)N[C@H](C(=O)N[C@@H](Cc1cnc[nH]1)C(=O)N[C@@H](Cc1cnc[nH]1)C(=O)N[C@H](C(=O)N[C@@H](Cc1cnc[nH]1)C(=O)N[C@@H](Cc1cnc[nH]1)C(=O)N[C@H](C(=O)N[C@H](C(=O)N[C@@H](Cc1cnc[nH]1)C(=O)N[C@@H](Cc1cnc[nH]1)C(=O)N[C@H](C(=O)N[C@@H](Cc1cnc[nH]1)C(=O)N[C@@H](Cc1cnc[nH]1)C(=O)N[C@H](C(=O)N[C@H](C(=O)N[C@@H](Cc1cnc[nH]1)C(=O)N[C@@H](Cc1cnc[nH]1)C(=O)N[C@H](C(=O)N[C@@H](Cc1cnc[nH]1)C(=O)N[C@@H](Cc1cnc[nH]1)C(=O)N[C@H](C(N)=O)[C@@H](C)CC)[C@@H](C)CC)[C@@H](C)CC)[C@@H](C)CC)[C@@H](C)CC)[C@@H](C)CC)[C@@H](C)CC)[C@@H](C)CC)[C@@H](C)CC)[C@@H](C)CC)[C@@H](C)CC` [IHHIHHIIHHIHHIIHHIHHIIHHIHHI], the MIC in assay [4] was more than 64 µM; in [5] it was more than 64 µM; in [6] it was 2 µM (≈ 7.14 µg/mL); in assay [7] it was more than 64 µM; in [8], not below 64 µM; in [9], more than 64 µM. For the same molecule, the MIC in assay [10] is 8 µM (≈ 28.6 µg/mL); in assay [11] it was not below 64 µM; in [12], not below 64 µM; in assay [13], not below 64 µM.
